Test results taken from patent US7019001B2, “Substituted benzothiazole amide derivatives” (Hoffman-La Roche Inc., priority 2001, dated 2006).

Tests used:
[1] = molecular target: T1, human adenosine A2A receptor (Homo sapiens, UniProt P29274); experiment: [3H]-SCH-58261 binding assay, human adenosine A2A receptor (CHO cell membranes, SPA); conditions: displacement of [3H]-SCH-58261 (1 nM); recombinant receptor in CHO membranes; Ki by Cheng-Prussoff equation; read-out: hA2 (pKi) (converted)
T1 construct: expressed in transfected cells; host or cells: CHO cells, semliki forest virus expression system; washed membrane pellet used
Procedure: Human Adenosine A2A Receptor
The human adenosine A2A receptor was recombinantly expressed in chinese hamster ovary (CHO) cells using the semliki forest virus expression system. Cells were harvested, washed twice by centrifugation, homogenised and again washed by centrifugation. The final washed membrane pellet was suspended in a Tris (50 mM) buffer containing 120 mM NaCl, 5 mM KCl, 2 mM CaCl2 and 10 mM MgCl2 (pH 7.4) (buffer A). The [^3H]-SCH-58261 (Dionisotti et al., 1997, Br J Pharmacol 121, 353; 1 nM) binding assay was carried out in 96-well plates in the presence of 2.5 μg of membrane protein, 0.5 mg of Ysi-poly-1-lysine SPA beads and 0.1 U adenosine deaminase in a final volume of 200 μl of buffer A. Non-specific binding was defined using xanthine amine congener (XAC; 2 μM). Compounds were tested at 10 concentrations from 10 μM–0.3 nM. All assays were conducted in duplicate and repeated at least two times. Assay plates were incubated for 1 hour at room temperature before centrifugation and then bound ligand determined using a Packard Topcount scintillation counter. IC50 values, the concentration where 50% of the […] binding is displaced, were calculated using a non-linear curve fitting program and Ki values calculated using the Cheng-Prussoff equation.

T1 sequence (P29274 whole entry): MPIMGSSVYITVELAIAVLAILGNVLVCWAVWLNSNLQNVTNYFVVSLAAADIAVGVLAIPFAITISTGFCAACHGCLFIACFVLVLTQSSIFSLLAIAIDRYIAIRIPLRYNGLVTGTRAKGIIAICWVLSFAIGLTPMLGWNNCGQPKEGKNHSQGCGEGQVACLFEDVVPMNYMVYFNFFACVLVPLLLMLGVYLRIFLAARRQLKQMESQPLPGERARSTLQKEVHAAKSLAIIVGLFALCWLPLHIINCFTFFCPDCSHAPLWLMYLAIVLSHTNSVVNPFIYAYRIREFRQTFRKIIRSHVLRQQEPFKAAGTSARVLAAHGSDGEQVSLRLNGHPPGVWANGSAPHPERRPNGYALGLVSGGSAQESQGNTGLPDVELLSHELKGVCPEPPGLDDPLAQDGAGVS

COc1ccc(N2CCOCC2)c2sc(NC(=O)NC3CCCC3)nc12 [Example 37, 1-Cyclopentyl-3-(4-methoxy-7-morpholin-4-yl-benzothiazol-2-yl)-urea]
melting point: 191 to 194 °C | Ki [1]: 7.94 nM
